Data taken from PubChem BioAssay (NCI).
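1) Cells in 96-well plates. 2) Compound, 48 h, 5 concentrations. 3) Linear interpolation between surrounding doses. 4) Unreached endpoint = highest concentration. GI50 = concentration required for 50% inhibition of growth. TGI marks complete inhibition of growth.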

Tests used:
Experiment in all cases: NCI tumour cell line growth inhibition, 48 h
ACHN renal = tested on: ACHN renal
HOP-62 NSCLC = tested on: HOP-62 NSCLC
SK-MEL-2 melanoma = tested on: SK-MEL-2 melanoma
SW-620 colon = tested on: SW-620 colon
M14 melanoma = tested on: M14 melanoma
IGROV1 ovarian = tested on: IGROV1 ovarian
RXF 393 renal = tested on: RXF 393 renal
T-47D breast = tested on: T-47D breast
SF-295 CNS = tested on: SF-295 CNS
BT-549 breast = tested on: BT-549 breast
U251 CNS = tested on: U251 CNS
OVCAR-8 ovarian = tested on: OVCAR-8 ovarian
DU-145 prostate = tested on: DU-145 prostate
SNB-75 CNS = tested on: SNB-75 CNS
MCF7 breast = tested on: MCF7 breast
NCI-H226 lung = tested on: NCI-H226 lung
KM12 colon = tested on: KM12 colon
UO-31 renal = tested on: UO-31 renal
HOP-92 NSCLC = tested on: HOP-92 NSCLC
NCI-H522 lung = tested on: NCI-H522 lung
SF-539 CNS = tested on: SF-539 CNS
SNB-19 CNS = tested on: SNB-19 CNS
CAKI-1 renal = tested on: CAKI-1 renal
SK-OV-3 ovarian = tested on: SK-OV-3 ovarian
MOLT-4 leukemia = tested on: MOLT-4 leukemia
MDA-MB-231 breast = tested on: MDA-MB-231 breast
OVCAR-4 ovarian = tested on: OVCAR-4 ovarian
OVCAR-5 ovarian = tested on: OVCAR-5 ovarian
RPMI-8226 leukemia = tested on: RPMI-8226 leukemia
MDA-MB-435 = tested on: MDA-MB-435
A549 NSCLC = tested on: A549 NSCLC
HS 578T breast = tested on: HS 578T breast
UACC-62 melanoma = tested on: UACC-62 melanoma
HCC-2998 colon = tested on: HCC-2998 colon
OVCAR-3 ovarian = tested on: OVCAR-3 ovarian
NCI-H460 lung = tested on: NCI-H460 lung
K-562 leukemia = tested on: K-562 leukemia
HCT-15 colon = tested on: HCT-15 colon
SN12C renal = tested on: SN12C renal
LOX IMVI melanoma = tested on: LOX IMVI melanoma
NCI/ADR-RES ovarian = tested on: NCI/ADR-RES ovarian
COLO 205 colon = tested on: COLO 205 colon
CCRF-CEM leukemia = tested on: CCRF-CEM leukemia
SF-268 CNS = tested on: SF-268 CNS
SK-MEL-28 melanoma = tested on: SK-MEL-28 melanoma
PC-3 prostate = tested on: PC-3 prostate
UACC-257 melanoma = tested on: UACC-257 melanoma
EKVX NSCLC = tested on: EKVX NSCLC
SK-MEL-5 melanoma = tested on: SK-MEL-5 melanoma
HCT-116 colon = tested on: HCT-116 colon
HT29 colon = tested on: HT29 colon
NCI-H23 lung = tested on: NCI-H23 lung
786-0 renal = tested on: 786-0 renal

For O=C1CS/C(=N/S(=O)(=O)c2ccc(N3N=C4c5ccccc5CC4C3c3cccs3)cc2)N(c2ccccc2)C1 (stereo unspecified), the GI50 (ACHN renal) was 22.1 µM, the TGI (ACHN renal) was 78.7 µM and the GI50 (HOP-62 NSCLC) was 17.4 µM. The TGI (HOP-62 NSCLC) was 49.2 µM, the GI50 (SK-MEL-2 melanoma) was 60.2 µM and the TGI (SK-MEL-2 melanoma) was greater than 100 µM. The GI50 (SW-620 colon) was 45.2 µM, the TGI (SW-620 colon) was greater than 100 µM and the GI50 (M14 melanoma) was 39.1 µM. For the same molecule, the TGI (M14 melanoma) was greater than 100 µM, the GI50 (IGROV1 ovarian) was 19.5 µM and the TGI (IGROV1 ovarian) was greater than 100 µM. The GI50 (RXF 393 renal) was 41 µM, the TGI (RXF 393 renal) was greater than 100 µM and the GI50 (T-47D breast) was 69.2 µM. It also gave a TGI (T-47D breast) greater than 100 µM, a GI50 (SF-295 CNS) of 32.7 µM and a TGI (SF-295 CNS) greater than 100 µM. The GI50 (BT-549 breast) was 21.4 µM, the TGI (BT-549 breast) was greater than 100 µM and the GI50 (U251 CNS) was 28 µM. The TGI (U251 CNS) was greater than 100 µM, the GI50 (OVCAR-8 ovarian) was 25.4 µM and the TGI (OVCAR-8 ovarian) was greater than 100 µM. It also gave a GI50 (DU-145 prostate) of 30.7 µM, a TGI (DU-145 prostate) greater than 100 µM and a GI50 (SNB-75 CNS) greater than 100 µM. For the same molecule, the TGI (SNB-75 CNS) was greater than 100 µM, the GI50 (MCF7 breast) was 88.8 µM and the TGI (MCF7 breast) was greater than 100 µM. The GI50 (NCI-H226 lung) was 22.3 µM, the TGI (NCI-H226 lung) was 93.8 µM and the GI50 (KM12 colon) was 28.4 µM. The TGI (KM12 colon) was 88.4 µM, the GI50 (UO-31 renal) was 69.3 µM and the TGI (UO-31 renal) was greater than 100 µM. It also gave a GI50 (HOP-92 NSCLC) of 79.9 µM, a TGI (HOP-92 NSCLC) greater than 100 µM and a GI50 (NCI-H522 lung) of 23.8 µM. The TGI (NCI-H522 lung) was greater than 100 µM, the GI50 (SF-539 CNS) was 27.8 µM and the TGI (SF-539 CNS) was 99.2 µM. It also gave a GI50 (SNB-19 CNS) of 55.7 µM, a TGI (SNB-19 CNS) greater than 100 µM and a GI50 (CAKI-1 renal) of 74.5 µM. The TGI (CAKI-1 renal) was greater than 100 µM, the GI50 (SK-OV-3 ovarian) was greater than 100 µM and the TGI (SK-OV-3 ovarian) was greater than 100 µM. It also gave a GI50 (MOLT-4 leukemia) of 0.0146 µM, a TGI (MOLT-4 leukemia) of 34.8 µM and a GI50 (MDA-MB-231 breast) of 21.4 µM. The TGI (MDA-MB-231 breast) was 84.8 µM, the GI50 (OVCAR-4 ovarian) was greater than 100 µM and the TGI (OVCAR-4 ovarian) was greater than 100 µM. It also gave a GI50 (OVCAR-5 ovarian) of 34.6 µM, a TGI (OVCAR-5 ovarian) greater than 100 µM and a GI50 (RPMI-8226 leukemia) of 31 µM. The TGI (RPMI-8226 leukemia) was greater than 100 µM, the GI50 (MDA-MB-435) was 29.5 µM and the TGI (MDA-MB-435) was greater than 100 µM. For the same molecule, the GI50 (A549 NSCLC) was 47.2 µM, the TGI (A549 NSCLC) was greater than 100 µM and the GI50 (HS 578T breast) was 20.5 µM. It also gave a TGI (HS 578T breast) of 83.7 µM, a GI50 (UACC-62 melanoma) of 16.1 µM and a TGI (UACC-62 melanoma) of 38.9 µM. The GI50 (HCC-2998 colon) was 20.5 µM, the TGI (HCC-2998 colon) was 48.5 µM and the GI50 (OVCAR-3 ovarian) was greater than 100 µM. It also gave a TGI (OVCAR-3 ovarian) greater than 100 µM, a GI50 (NCI-H460 lung) greater than 100 µM and a TGI (NCI-H460 lung) greater than 100 µM. The GI50 (K-562 leukemia) was 10.3 µM, the TGI (K-562 leukemia) was 93.5 µM and the GI50 (HCT-15 colon) was 35.5 µM. For the same molecule, the TGI (HCT-15 colon) was greater than 100 µM, the GI50 (SN12C renal) was 34.3 µM and the TGI (SN12C renal) was greater than 100 µM. The GI50 (LOX IMVI melanoma) was 21.2 µM, the TGI (LOX IMVI melanoma) was 51 µM and the GI50 (NCI/ADR-RES ovarian) was greater than 100 µM. The TGI (NCI/ADR-RES ovarian) was greater than 100 µM, the GI50 (COLO 205 colon) was 57.2 µM and the TGI (COLO 205 colon) was greater than 100 µM. For the same molecule, the GI50 (CCRF-CEM leukemia) was 36.8 µM, the TGI (CCRF-CEM leukemia) was greater than 100 µM and the GI50 (SF-268 CNS) was greater than 100 µM. For the same molecule, the TGI (SF-268 CNS) was greater than 100 µM, the GI50 (SK-MEL-28 melanoma) was greater than 100 µM and the TGI (SK-MEL-28 melanoma) was greater than 100 µM. For the same molecule, the GI50 (PC-3 prostate) was 45 µM, the TGI (PC-3 prostate) was greater than 100 µM and the GI50 (UACC-257 melanoma) was 42.3 µM. The TGI (UACC-257 melanoma) was greater than 100 µM, the GI50 (EKVX NSCLC) was 39.5 µM and the TGI (EKVX NSCLC) was greater than 100 µM. It also gave a GI50 (SK-MEL-5 melanoma) of 38.2 µM, a TGI (SK-MEL-5 melanoma) greater than 100 µM and a GI50 (HCT-116 colon) of 12.5 µM. It also gave a TGI (HCT-116 colon) of 27.4 µM, a GI50 (HT29 colon) of 61 µM and a TGI (HT29 colon) greater than 100 µM. The GI50 (NCI-H23 lung) was 24.2 µM, the TGI (NCI-H23 lung) was 63.5 µM and the GI50 (786-0 renal) was 22.1 µM. For the same molecule, the TGI (786-0 renal) was greater than 100 µM.
